{"source": "patent US20120283282A1", "about": "“Photoproducts of Tryptophan, Their Synthesis and Uses Thereof” (priority 2009, published 2012)", "tested_on": "hepatic glucose output", "assay": "Glucose production assay in primary hepatocytes", "assay_type": "cell-based", "conditions": "FIG. 5", "procedure": "Primary hepatocytes were cultured in six-well plates (1.4 times 10^6 cells per well) in DMEM with 10% FBS or, in case of hormonal treatments, in serum-free DMEM. The medium was then replaced with 1 ml of glucose production buffer consisting of glucose-free DMEM (pH 7.4), without phenol red, supplemented with 20 mM sodium lactate and 2 mM sodium pyruvate. After a 3-h incubation, 0.5 ml of medium was collected and the glucose concentration measured with a colorimetric glucose assay kit (Sigma). The readings were then normalized to the total protein content determined from the whole-cell lysates. (Yoon J C, et al. Nature 413: 131-8, 2001.)"}
{"smiles": "c1ccc2c(-c3nccc4c3[nH]c3ccccc34)c[nH]c2c1", "note": "(single isomer, unassigned) [Compound F7, 1-(1H-indol-3-yl)-9H-pyrido[3,4-b]indole]", "values": [{"measurement": "hepatic glucose output", "value": "decreases hepatic glucose output"}]}
